Measurements from PubChem BioAssay (NCI).
Several values for one entry are separate records, joined by “and”; a condition that tells them apart may be missing. Equal entries are not always repeated.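 Grown in 96-well plates, cells were treated for 48 hours with each compound at five concentrations. Insufficient inhibition: endpoint recorded as highest concentration tested. At the GI50, growth is halved. Definition used: TGI = concentration required for complete inhibition of growth.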

What was measured:
Test in all cases: NCI tumour cell line growth inhibition, 48 h
[1] = system: T-47D breast
[2] = system: BT-549 breast
[3] = system: MDA-N
[4] = system: SNB-78 CNS
[5] = system: DLD-1 colon
[6] = system: LXFL 529 NSCLC
[7] = system: HOP-18 NSCLC

| Compound | GI50 [1] [µM] | TGI [1] | GI50 [2] [µM] | TGI [2] | also measured |
| --- | --- | --- | --- | --- | --- |
| CSc1ccc(C2=NN(C(C)=O)C(c3cc(C)cs3)C2)cc1 (stereo unspecified) | 13 | > 100 µM | 17.1 | 63.7 µM | – |
| CC1=C(C(=O)Nc2ccc3[nH]ncc3c2)C(c2ccc3ccccc3c2)CC(=O)N1 (stereo unspecified) | > 25 | > 25 µM | 4.11 | > 25 µM | – |
| COC(=O)CCCCN=Cc1c(O)c(O)c(C(C)C)c2cc(C)c(-c3c(C)cc4c(C(C)C)c(O)c(O)c(C=NCCCCC(=O)OC)c4c3O)c(O)c12 | 0.692 | 8.04 µM | 1.5 | 23.8 µM | – |
| O=C(c1ccco1)c1nc2ccc(C(F)(F)F)cc2[n+]([O-])c1C(F)(F)F | – | – | 39.4 | > 100 µM | – |
| COc1cnc2cc(C(=O)O)c3c([N+](=O)[O-])cccc3c2c1 | – | > 100 µM | – | > 100 µM | TGI [3]: > 100 µM |
| COC(=O)c1cc2c3ccccc3[nH]c2c2ncccc12 | 3.12 | > 100 µM | 17.9 | 78.8 µM | – |
| CC(C)CC(=O)[O-].CC(C)CC(=O)[O-].N.N.N.N.[Co+3].[O-][Cl+3]([O-])([O-])[O-] | – | – | – | – | GI50 [4]: > 100 µM; TGI [4]: > 100 µM; GI50 [5]: > 100 µM; TGI [5]: > 100 µM; GI50 [6]: > 100 µM; TGI [6]: > 100 µM |
| N#CC1(Cc2ccc(N)cc2)c2ccccc2C=CN1C(=O)c1ccccc1 (stereo unspecified) | – | – | – | – | TGI [4]: > 100 µM; TGI [5]: > 100 µM; TGI [6]: > 100 µM; TGI [7]: > 100 µM |
| N#Cc1ccc(C#Cc2ccccc2C#CCCCCO)cc1 | 13 | 28 µM | 14.7 | 29.3 µM | – |
| CCCCC(=O)OCC1OC(n2cnc3c(=S)nc[nH]c32)C(OC(=O)CCCC)C1OC(=O)CCCC (stereo unspecified) | 1.17 | > 59 µM | 1.11 | > 28.7 µM | – |
| CCCCC/C(C=C(C#N)C#N)=C/c1ccccc1 | 4.93 | 26.1 µM | 2.52 | 8.75 µM | – |
| Cc1ccc(S(=O)(=O)N(CCOc2ccc(/C(N)=N/Cl)cc2)CCOc2ccc(/C(N)=N\Cl)cc2)cc1 | 15.3 | 81.7 µM | 14.1 | 36.6 µM | – |
| O=C1CNCCCN2CCN(CCCNCC(=O)Nc3ccc(cc3)S(=O)(=O)c3ccc(cc3)NC(=O)CNCCCN3CCN(CCCNCC(=O)Nc4ccc(cc4)S(=O)(=O)c4ccc(cc4)N1)CC3)CC2 | – | 97.2 µM | – | 58.4 µM | TGI [3]: 42.2 µM |
| COc1cc(/C=C/c2cc(/C=C/c3ccc(O)c(OC)c3)n(-c3ccccc3)n2)ccc1O | 0.645 | 2.6 µM | 0.631 | 22.8 µM | – |
| Cn1c(N2NC(=O)C(N=Nc3ccc(S(N)(=O)=O)cc3)C2=O)nc(-c2ccco2)c(C#N)c1=O (stereo unspecified) | 7.58 | 19.7 µM | 8.67 | 40.6 µM | – |
| CCNCCNc1cc(-c2ccc(C(=O)OC)cc2)c(C#N)c2nc3ccccc3n12 | 2.16 | 5.31 µM | – | – | – |
| Cc1ccc(-c2c3c([nH]c(=O)c2C#N)-c2cc(F)ccc2OC3)cc1 | 80.4 | > 100 µM | – | – | – |
| CC1=C(CCCNS(C)(=O)=O)C2=C(C)C3(CC3)[C@@](C)(O)C(=O)C2=C1 | 0.563 | 6.02 µM | 0.749 | 3.89 µM | – |
| O=C(NCCOCCOCCNc1cccc2c1C(=O)N(C1CCCNC1=O)C2=O)c1cc2c(o1)C(=O)c1ccccc1C2=O (stereo unspecified) | 2.53 | 8.81 µM | 1.59 | 2.98 µM | – |
| CCOc1cccc(/C=N/NC(=O)c2ccccc2Nc2ccnc(C(F)(F)F)c2)c1O | 0.582 | 37.5 µM | 0.494 | 53.6 µM | – |
| COc1ccc(/C(=C2\O[C@@H]([C@H]3COC(C)(C)O3)[C@H]3OC(C)(C)O[C@@H]23)c2cc(OC)c(OC)c(OC)c2)cc1O | 25.1 | > 100 µM | 5.39 | > 100 µM | – |
| CC1=C(C(=O)Nc2ccc([N+](=O)[O-])cc2)C(c2ccc(N(C)C)cc2)C(C(=O)Nc2ccc([N+](=O)[O-])cc2)=C(C)N1 | – | – | – | – | TGI [4]: > 100 µM; TGI [5]: 30 µM; TGI [6]: 71.4 µM |
| C=C(CN1CCc2ccccc2C1)c1ccc(C(=O)Nc2cnccn2)cc1 | > 100 | > 100 µM | – | – | – |
| O=[N+]([O-])/C=C\c1ccc(Cl)c(Cl)c1 | 2.82 | 13.9 µM | 4.15 | 14.9 µM | – |
| O=C(Nc1ccc(N2CCNCC2)cc1)c1[nH]ncc1Nc1cc(Oc2ccccc2)ncn1 | 2.46 | 8.09 µM | 1.84 | 3.58 µM | – |
| CC1CCC2(C(=O)O)CCC3(C)C(=CCC4C5(C)CC(O)C(O)C(C)(CO)C5C(O)CC43C)C2C1C (stereo unspecified) | – | > 84.7 µM | – | > 93.5 µM | TGI [3]: > 57.6 µM |
| COc1cc(OC)cc(-c2ccc(-c3ccc(C(=N)N)o3)o2)c1 | 2.08 | 5.04 µM | 6.91 | 20.1 µM | – |

| Compound | GI50 [1] [µM] | TGI [1] | GI50 [2] [µM] | TGI [2] | also measured |
| --- | --- | --- | --- | --- | --- |
| Cn1cc(-c2cnc3ccc(NC(=O)Nc4ccc(F)c(Br)c4)cc3n2)cn1 | 0.631 | 2.27 µM | 1.51 | 3.24 µM | – |
| Cc1ccc(CS/C(=C\c2ccc([N+](=O)[O-])cc2)C(=O)c2ccc(F)cc2)cc1 | 4.53 | 22.4 µM | 1.92 | 4.38 µM | – |
| O=C(O)CCCCC(CCSCc1ccccc1)SCc1ccccc1 (stereo unspecified) | 44 | > 100 µM | 50.8 | > 100 µM | – |
| CSc1cc(N=Nc2nc3ccccc3s2)c2ccccc2c1O | 3.64 | > 50 µM | 6.28 | 14 µM | – |
| N#C/C(=C1C=C/C(=N/O)C(Br)=C/1)c1ccccc1 | 2.19 | 20.6 µM | 9.59 | 27.3 µM | – |
| Cc1cc(I)cc(CNCCCN2CCSCC2)c1O | 16 | 40.6 µM | 5.6 | 20.2 µM | – |
| O=C1c2c(c3c4ccccc4n(CCCCCCBr)c3c3[nH]c4ccccc4c23)C(=O)N1O | 1.74 | 7.44 µM | 1.83 | 6.53 µM | – |
| Nc1ccn(C2O[C@H](CO)[C@@H](O)[C@@H]2O)c(=O)n1 (stereo partly specified) | – | > 100 µM | – | > 100 µM | – |
| O=c1oc2ccc(F)cc2c(=O)n1-c1ccc(F)cc1F | 2.28 | 7.08 µM | 2.53 | 7.4 µM | – |
| O=C(O)Cn1ccc(=O)c2ccc([N+](=O)[O-])cc21 | – | > 100 µM | – | > 100 µM | TGI [3]: > 100 µM |
| O=NN(Cc1ccc(Cl)cc1)C(C(=O)O)c1ccccc1 (stereo unspecified) | – | > 100 µM | – | > 100 µM | TGI [3]: > 100 µM |
| CCCCNC1=C(C(=O)OCC)C(=O)CO1 | – | – | – | – | TGI [5]: > 100 µM; TGI [6]: > 100 µM; TGI [7]: > 100 µM |
| Cc1cc2c(cc1C)[n+](=O)c(C(=O)CC(=O)C(=O)Nc1c(C(C)C)cccc1C(C)C)c(C)n2[O-] | – | – | – | – | TGI [4]: > 100 µM; TGI [6]: > 100 µM; TGI [7]: > 100 µM |
| COc1cccc(/C=N/NC(=O)c2ccccc2Nc2ccnc(C(F)(F)F)c2)c1O | 0.498 | 38.8 µM | 0.567 | 54.3 µM | – |
| O=C(CN1CCOCC1)Nc1ccc(Cn2nnc3c2C(=O)c2nnn(Cc4ccc(NC(=O)CN5CCOCC5)cc4)c2C3=O)cc1 | – | – | 1.46 | 2.83 µM | – |
| CCOC(=O)/C=C(/C(=O)OCC)n1cc(Cl)c(=O)n(CC(=O)OCC)c1=O | 1.31 | 18.9 µM and 4.28 µM | – | 10.6 µM and 37.8 µM | GI50 [3]: 16.4 µM; TGI [3]: 11.9 µM and 31.4 µM |
| Cc1nc2cccc([N+](=O)[O-])c2c(NCCCN(C)C)c1C | – | > 100 µM | – | – | TGI [3]: > 100 µM |
| O=C1/C(=C/c2ccc(Cl)cc2Cl)N=C(c2ccccc2)N1Cc1ccco1 | – | – | 27.4 | 87.9 µM | – |
| COc1ccc(C2=NN(C(=O)c3cc(OC)c(OC)c(OC)c3)C(c3ccc(C#N)cc3)C2)cc1OC (stereo unspecified) | 3.64 | 97.6 µM | 2.98 | > 33.1 µM | – |
| N=C1CSC2=NC3=C(CCC/C3=C\c3ccccc3)C(c3ccccc3)N12 (stereo unspecified) | – | – | – | – | TGI [4]: 23.6 µM; TGI [5]: 19.4 µM; TGI [6]: 17 µM |
| CC1OC(O[C@H]2C[C@@H](O)[C@]3(CO)[C@H]4[C@H](O)C[C@]5(C)[C@@H](C6=CC(=O)OC6)CC[C@]5(O)[C@@H]4CC[C@]3(O)C2)C(O)C(O)C1O (stereo partly specified) | 24.9 | 51.5 µM | 18 | 32.7 µM | GI50 [3]: 18.8 µM; TGI [3]: 33.7 µM |
| CN(C)CCNc1cc(-c2ccccc2)nc2ccccc12 | 8.79 | 37.2 µM | 11.5 | 28.8 µM | – |
| Cc1nn(CN2CCN(C)CC2)c(=S)n1/N=C/c1cccc2ccccc12 | 17.6 | 48.2 µM | 21.1 | 47.3 µM | – |
| Cc1c(C(=O)N/N=C/c2ccc(Cl)cc2)nnn1-c1ccnc2c(C(F)(F)F)cccc12 | 7.59 | 28.9 µM | 22.9 | 52.3 µM | – |
| O=C1C=CC(=Nc2ccc3c(c2)C(Br)c2ccccc2-3)O1 (stereo unspecified) | – | – | – | – | TGI [4]: > 100 µM; TGI [5]: > 100 µM; TGI [6]: > 100 µM |
| C[C@]12CC[C@H](O)CC1=CC[C@@H]1[C@@H]2CC[C@]2(C)C(c3cccnc3)=CC[C@@H]12 | > 100 | > 100 µM | 21.7 | > 100 µM | – |
